Experimental findings from patent publication US20150038435A1, “N-TERMINALLY MODIFIED OLIGOPEPTIDES AND USES THEREOF” (Novo Nordisk A/S, priority 2012, published 2015) are described below.

Where “and” joins values, the source holds several entries; their conditions need not be identical. Equal entries are not always repeated. Non-standard residues stand in square brackets, D forms with d. Residues, ends and D or L forms follow the SMILES beside them. *: point of attachment. Lauroyl = CCCCCCCCCCCC(=O)*

Format in all cases: biochemical
One assay relates to GI juice. The assay can be described thus: Inhibition of GI juice degradation of insulin analogue and GLP-1 analogue. The note with it: compound 1 mM, rat GI juice. The method, then:
96 well plates were coated by incubating with 0.4% Bovine serum albumin (BSA) solution for minimum of 60 min. […] 1% TFA), 30 μl of a substrate (100 μM insulin analogue or GLP-1 analogue in buffer) and 30 μl of N-terminally acylated peptide or oligopeptide of the invention (10 mM) were added. The plates were pre-incubated (before adding GI juice) for 60 min at 37° C. After addition of 30 μl of GI juice (10-times diluted in buffer), the plates were incubated for 60 min/37° C. on shaker. […] 1% TFA and spun down in plates (4500 rpm for 10 min). Samples were diluted 5 times with the buffer prior to LC-MS analysis. Standard samples (0.1, 0.5, 1.0, 5.0, 10.0 μM) were prepared and treated as the samples. Standard curve was analysed both at the beginning and the end of the sequence. Two replicates of each tested conditions were included. Ion suppression was assessed by analyzing a standard at 1 μM and at 10 μM with 1 mM inhibitor present. Intact insulin or GLP-1 analoues were determined at each sample. The results were plotted against the incubation time. […] The half-lives were expressed relative to the half-live of the insulin or GLP-1 analogue without inhibitor present by dividing the half-lives obtained in the presence of inhibitor with those obtained in the absence of inhibitors. GI juice was prepared from male Sprague Dawley rats (200-250 g) by excising approximately 20 cm piece of mid jejunum and rinsing the inside with 2.5 ml 0.9% sodium chloride solution. The sodium chloride solution was collected in a centrifuge tube, pooled from all rats (20) and centrifuged at 4500 rpm./10 min/4° C. The supernatant was aliquoted in tubes and stored at −80° C.
A14E, B25H, B29K(N(eps)Octadecanedioyl-γGlu-OEG-OEG), desB30 human insulin and N-epsilon26-[2-(2-{2-[2-(2-{2-[(S)-4-Carboxy-4-(17-carboxyheptadecanoylamino)-butyrylamino]ethoxy}ethoxy)acetylamino]ethoxy}ethoxy)acetyl][Aib8,Arg34]GLP-1-(7-37) were used as standards in this assay.
For experiments repeated more than two times, standard deviation is given

Assay [1] deals with Chymotrypsin. The assay can be described thus: Inhibition of insulin degradation, HPLC assay (Example 201). The conditions noted are these: for Ki: substrate A14E, B25H, B29K(N(eps)Octadecanedioyl-γGlu-OEG-OEG), desB30 human insulin. On the procedure: Degradation using duodenum lumen enzymes (prepared by filtration of duodenum lumen content) from SPD rats.
Each HPLC vial contained Dulbecco's phosphate buffer saline (DPBS, Invitrogen catalogue #14190-094), A14E, B25H, B29K(N(eps)Octadecanedioyl-γGlu-OEG-OEG), desB30 human insulin, N-terminally acylated peptide or oligopeptide of the invention and enzyme (chymotrypsin, trypsin, elastase or duodenum lumen enzymes).
The assay was performed in an HPLC autosampler equilibrated at 37° C., at specified time points, aliquots were injected directly onto an HPLC column and the amount of the intact A14E, B25H, B29K(N(eps)Octadecanedioyl-γGlu-OEG-OEG), desB30 human insulin was determined. Degradation half life was determined by exponential fitting of the data (for example, single exponential decay, 2 parameters, Sigma Plot version 11, Systat Software) and normalized to half time determined for the reference insulins, or human insulin in each assay. […] This was done by plotting the half life achieved with different concentrations of the N-terminally acylated peptide or oligopeptides of the invention as a function of their concentrations and fitting the experimental results using, for example, sigmoidal logistic regression (2 parameters, Sigma Plot v 11). Inhibition constants for the interaction between the N-terminally acylated peptide or oligopeptides of the invention and proteolytic enzymes were also obtained by performing the assay described above with varying concentrations of the inhibitor and substrate and analyzing the results, for example, by double reciprocal transformation as known to the person skilled in the art and described for example in Hubalek, F. et al., J. Med. Chem. 47, 1760-1766 (2004). Other algorithms known to the person skilled in the art may also be used to determine inhibition constants from the results.

The target in assay [2] is Chymotrypsin. Description: Inhibition of enzymatic degradation of a chromogenic substrate (Example 202). The conditions noted are these: substrate N-succinyl-Ala-Ala-Pro-Phe-p-Nitroanilide. The source says:
The use of chromogenic substrates to monitor activity of proteolytic enzymes is known in the field (for example DelMar, E. G., et al., Anal. Biochem., 99, 316-320, (1979)). For example, N-succinyl-Ala-Ala-Pro-Phe-p-Nitroanilide is commonly used substrate for measuring chymotrypsin activity. Enzymatic cleavage of 4-nitroanilide substrates yields 4-nitroaniline (yellow color under alkaline conditions).
An assay following the increase in absorbance at 395 nm as a function of time was established in 96 well format using Varioskan Flash Multimode Meter (Thermo Scientific). Each well contained 70 μl of Dulbecco's phosphate buffer saline (Invitrogen catalogue #14190-094), 10 μl of N-succinyl-Ala-Ala-Pro-Phe-p-Nitroanilide (Sigma cat# S 7388) in DMSO (different concentrations were used in order to obtain the inhibition constant), 10 μl of N-terminally acylated peptide or oligopeptide of the invention in varying concentration and 10 μl of a stock solution of an enzyme (chymotrypsin, trypsin, elastase, etc.). The incubations were performed at 37° C. Absorbance at 395 nm was measured immediately after addition of the enzyme to the 96 well plate and also every minute for the next 80 minutes. The concentration of the enzyme was optimized to allow determination of slopes for the time course of initial absorbance increase with and without added inhibitors. The slopes were determined by linear regression of the linear part of the fluorescence trace (for example, the first 10 min of the reaction). Each assay was performed in duplicate and average of the two traces was included in the calculations. The relative effect of N-terminally acylated peptide or oligopeptides of the invention on enzymatic degradation of N-succinyl-Ala-Ala-Pro-Phe-p-Nitroanilide was obtained by comparison of the slopes achieved by the same concentration of the N-terminally acylated peptide or oligopeptides. […] This was done by plotting the slopes achieved with different concentrations of the N-terminally acylated peptide or oligopeptides of the invention as a function of their concentrations and fitting the experimental results using, for example, sigmoidal logistic regression (2 parameters, Sigma Plot v 11). Inhibition constants for the interaction between the N-terminally acylated peptide or oligopeptides of the invention and proteolytic enzymes were also obtained by performing the assay described above with varying concentrations of the inhibitor and substrate and analyzing the results, for example, by double reciprocal transformation as known to the person skilled in the art and described for example in Hubalek, F. et al., J. Med. Chem. 47, 1760-1766 (2004).

As for `CCCCCCCCCCCC(=O)N[C@H](C)C(=O)N[C@H](C)C(=O)N1CCC[C@@H]1C(=O)N[C@H](Cc1ccccc1)C(=O)O` [Example 1, N-dodecanoyl-DAla-DAla-DPro-DPhe-OH] (Lauroyl-[dA][dA][dP][dF]-OH), the “Half Life fold increase (over solution w/o N-terminally acylated (oligo)peptide)” value in the assay on GI juice stood at 5.0. In addition, in the assay on GI juice (37° C.), the “Half Life of insulin analogue” value came out at 13.0 min.

By Ki is commonly meant the equilibrium dissociation constant of an inhibitor or competing ligand from its target. A low value points to a stronger hold on the target. With `CCCCCCCCCCCC(=O)N[C@@H](C)C(=O)N[C@@H](C)C(=O)N1CCC[C@H]1C(=O)N[C@@H](Cc1ccccc1)C(=O)O` [Example 34, N-dodecanoyl-Ala-Ala-Pro-Phe-OH] (Lauroyl-AAPF-OH), the “kind of enzyme inhibition” value on Chymotrypsin [1] (chymotrypsin, insulin analogue as substrate) is “mixed inhibition”; at Chymotrypsin [2] (chymotrypsin), “competitive inhibition”. Moreover, the Ki was ~15 µM at Chymotrypsin [1] (chymotrypsin); 15 µM on Chymotrypsin [1]; ~130 µM and ~150 µM at Chymotrypsin [2] (chymotrypsin); 130 µM at Chymotrypsin [2].
